Measurements: publication PMC5684552 (Evidence-based Complementary and Alternative Medicine : eCAM, 2017)

Key:
[1] = target: human TRPV1 receptor channel (Homo sapiens, UniProt Q8NER1); test: Two-electrode voltage clamp of capsaicin-induced current in Xenopus oocytes expressing wild type human TRPV1; assay type: cell-based; conditions: for inhibition of capsaicin-induced current: 100 μM gomisin A plus 1 μM capsaicin, voltage ramp
control oocytes = test: Two-electrode voltage clamp of control oocytes injected with H2O; assay type: cell-based, X. laevis; conditions: for inward peak current in control oocytes: oocytes injected with 40 nl H2O
TRPV1 Y453A mutant = TRPV1 Y453A mutant (Homo sapiens, UniProt Q8NER1, Y454A, species not given); assay type: cell-based; conditions: holding potential −80 mV
TRPV1 Y453A mutant, sequence (Q8NER1 whole entry Y454A): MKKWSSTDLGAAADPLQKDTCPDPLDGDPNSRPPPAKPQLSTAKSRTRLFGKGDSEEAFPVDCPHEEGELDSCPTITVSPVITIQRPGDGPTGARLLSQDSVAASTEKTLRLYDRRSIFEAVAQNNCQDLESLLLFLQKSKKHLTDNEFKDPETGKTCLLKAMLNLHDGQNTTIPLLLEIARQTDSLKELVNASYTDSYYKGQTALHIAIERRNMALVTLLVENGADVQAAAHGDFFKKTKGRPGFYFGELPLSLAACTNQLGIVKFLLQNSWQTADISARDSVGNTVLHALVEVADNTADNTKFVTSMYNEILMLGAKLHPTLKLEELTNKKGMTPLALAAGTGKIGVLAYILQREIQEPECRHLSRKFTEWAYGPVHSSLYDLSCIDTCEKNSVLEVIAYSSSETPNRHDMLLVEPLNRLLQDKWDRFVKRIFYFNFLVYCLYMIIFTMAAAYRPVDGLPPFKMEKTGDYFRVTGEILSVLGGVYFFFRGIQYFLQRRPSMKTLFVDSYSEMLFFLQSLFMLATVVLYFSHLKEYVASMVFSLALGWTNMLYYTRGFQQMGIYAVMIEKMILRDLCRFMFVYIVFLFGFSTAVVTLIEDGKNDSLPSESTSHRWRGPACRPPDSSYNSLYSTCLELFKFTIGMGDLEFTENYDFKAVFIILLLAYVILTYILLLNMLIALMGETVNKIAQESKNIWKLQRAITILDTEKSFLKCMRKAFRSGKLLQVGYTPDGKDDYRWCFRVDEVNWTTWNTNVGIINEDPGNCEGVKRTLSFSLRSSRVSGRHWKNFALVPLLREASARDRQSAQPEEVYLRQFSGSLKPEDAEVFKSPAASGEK

TRPV1 V469A mutant = TRPV1 V469A mutant (Homo sapiens, UniProt Q8NER1, form not given, species not given); assay type: cell-based; conditions: holding potential −80 mV
TRPV1 V469A mutant, sequence (Q8NER1 whole entry, stated change not applied): as the sequence (Q8NER1 whole entry Y454A) above, with A454Y counted along it

TRPV1 L465A mutant = TRPV1 L465A mutant (Homo sapiens, UniProt Q8NER1, form not given, species not given); assay type: cell-based; conditions: holding potential −80 mV
TRPV1 L465A mutant, sequence (Q8NER1 whole entry, stated change not applied): as the sequence (Q8NER1 whole entry Y454A) above, with A454Y counted along it

TRPV1 A452Y mutant = TRPV1 A452Y mutant (Homo sapiens, UniProt Q8NER1, A453Y); assay type: cell-based; conditions: holding potential −80 mV
TRPV1 A452Y mutant, sequence (Q8NER1 whole entry A453Y): as the sequence (Q8NER1 whole entry Y454A) above, with A453Y, A454Y counted along it

TRPV1 Y454A mutant = TRPV1 Y454A mutant (Homo sapiens, UniProt Q8NER1, Y455A); assay type: cell-based; conditions: holding potential −80 mV
TRPV1 Y454A mutant, sequence (Q8NER1 whole entry Y455A): as the sequence (Q8NER1 whole entry Y454A) above, with A454Y, Y455A counted along it

TRPV1 T468A mutant = TRPV1 T468A mutant (Homo sapiens, UniProt Q8NER1, T469A, species not given); assay type: cell-based; conditions: holding potential −80 mV
TRPV1 T468A mutant, sequence (Q8NER1 whole entry T469A): as the sequence (Q8NER1 whole entry Y454A) above, with A454Y, T469A counted along it

TRPV1 N467A mutant = TRPV1 N467A mutant (Homo sapiens, UniProt Q8NER1, form not given, species not given); assay type: cell-based; conditions: holding potential −80 mV
TRPV1 N467A mutant, sequence (Q8NER1 whole entry, stated change not applied): as the sequence (Q8NER1 whole entry Y454A) above, with A454Y counted along it

TRPV1 R455A mutant = TRPV1 R455A mutant (Homo sapiens, UniProt Q8NER1, R456A, species not given); assay type: cell-based; conditions: holding potential −80 mV
TRPV1 R455A mutant, sequence (Q8NER1 whole entry R456A): as the sequence (Q8NER1 whole entry Y454A) above, with A454Y, R456A counted along it

TRPV1 K466A mutant = TRPV1 K466A mutant (Homo sapiens, UniProt Q8NER1, form not given, species not given); assay type: cell-based; conditions: holding potential −80 mV
TRPV1 K466A mutant, sequence (Q8NER1 1-837 isoform Q8NER1-3, stated change not applied): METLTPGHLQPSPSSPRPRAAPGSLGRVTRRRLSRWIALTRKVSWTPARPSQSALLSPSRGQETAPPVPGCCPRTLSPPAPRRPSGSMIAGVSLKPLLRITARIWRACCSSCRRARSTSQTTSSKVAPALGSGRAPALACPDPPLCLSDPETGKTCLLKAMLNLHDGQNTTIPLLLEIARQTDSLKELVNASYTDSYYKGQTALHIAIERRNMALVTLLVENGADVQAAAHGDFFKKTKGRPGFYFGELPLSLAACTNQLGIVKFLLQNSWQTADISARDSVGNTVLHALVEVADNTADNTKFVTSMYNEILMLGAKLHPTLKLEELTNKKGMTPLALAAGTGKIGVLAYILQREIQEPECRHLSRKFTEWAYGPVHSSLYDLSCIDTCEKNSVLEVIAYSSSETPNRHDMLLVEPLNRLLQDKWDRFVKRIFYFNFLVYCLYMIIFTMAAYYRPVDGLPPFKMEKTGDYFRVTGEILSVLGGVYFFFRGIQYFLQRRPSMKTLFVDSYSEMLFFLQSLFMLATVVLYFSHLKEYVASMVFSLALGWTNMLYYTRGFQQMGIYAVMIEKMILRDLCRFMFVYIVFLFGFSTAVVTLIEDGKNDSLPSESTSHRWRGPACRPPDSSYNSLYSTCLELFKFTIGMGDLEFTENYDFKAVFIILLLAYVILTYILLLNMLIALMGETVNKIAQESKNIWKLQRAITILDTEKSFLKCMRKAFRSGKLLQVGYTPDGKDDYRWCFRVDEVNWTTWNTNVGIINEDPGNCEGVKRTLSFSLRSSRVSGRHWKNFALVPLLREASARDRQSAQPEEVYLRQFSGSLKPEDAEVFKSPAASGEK

TRPV1 YNA2 double mutant = TRPV1 YNA2 double mutant (Homo sapiens, UniProt Q8NER1, Y454A, form not given, species not given); assay type: cell-based; conditions: holding potential −80 mV
TRPV1 YNA2 double mutant, sequence (Q8NER1 whole entry Y454A, form open): as the sequence (Q8NER1 whole entry Y454A) above

TRPV1 V456A mutant = TRPV1 V456A mutant (Homo sapiens, UniProt Q8NER1, V456A, species not given); assay type: cell-based; conditions: holding potential −80 mV
TRPV1 V456A mutant, sequence (Q8NER1 1-837 isoform Q8NER1-3 V456A): as the sequence (Q8NER1 1-837 isoform Q8NER1-3, stated change not applied) above, with V456A counted along it

human TRPV1 receptor channel, sequence (Q8NER1 whole entry): as the sequence (Q8NER1 whole entry Y454A) above, with A454Y counted along it

COc1cc(CNC(=O)CCCC/C=C/C(C)C)ccc1O [capsaicin, reference compound]
reversal membrane voltage potential of capsaicin-induced inward current ([1]; 1 μM capsaicin, ramp −100 to +80 mV): ~−10 mV
effect of agonist on current ([1]; 1 μM, holding potential −80 mV): stimulated an inward current
inward peak current in control oocytes (control oocytes; 1 μM): did not result in any inward peak current

Oc1cc2c(cc1O)CN(C(=S)NCCc1ccc(Cl)cc1)CCC2 [capsazepine, reference compound]
effect of antagonist on capsaicin-stimulated inward current ([1]; 10 μM capsazepine cotreated with 1 μM capsaicin): blocked the capsaicin-stimulated inward current
inhibition at 10 µM ([1]; 10 μM capsazepine cotreated with 1 μM capsaicin, −80 mV, read-out: percent inhibition of capsaicin-induced inward current): 79.5 ± 4.5%

gomisin A
Vmax (TRPV1 Y453A mutant): 38.3 ± 2.4
n (Hill coefficient) (TRPV1 Y453A mutant): 1.2 ± 0.5
Vmax (TRPV1 V469A mutant): 72.5 ± 5.6
n (Hill coefficient) (TRPV1 V469A mutant): 2.1 ± 0.7
Vmax (TRPV1 L465A mutant): 68.3 ± 3.5
n (Hill coefficient) (TRPV1 L465A mutant): 1.8 ± 0.3
Vmax (TRPV1 A452Y mutant): 79.2 ± 3.1
n (Hill coefficient) (TRPV1 A452Y mutant): 2.2 ± 0.8
Vmax (TRPV1 Y454A mutant): 59.2 ± 3.0
n (Hill coefficient) (TRPV1 Y454A mutant): 2.2 ± 0.8
Vmax (TRPV1 T468A mutant): 67.9 ± 1.5
n (Hill coefficient) (TRPV1 T468A mutant): 1.6 ± 0.5
Vmax (TRPV1 N467A mutant): 24.7 ± 2.0
n (Hill coefficient) (TRPV1 N467A mutant): 1.3 ± 0.5
Vmax (TRPV1 R455A mutant): 64.4 ± 2.6
n (Hill coefficient) (TRPV1 R455A mutant): 1.7 ± 0.6
Vmax (TRPV1 K466A mutant): 64.7 ± 2.1
n (Hill coefficient) (TRPV1 K466A mutant): 2.3 ± 0.5
Vmax (TRPV1 YNA2 double mutant): 17.9 ± 6.5
Vmax (TRPV1 V456A mutant): 91.5 ± 2.6
n (Hill coefficient) (TRPV1 V456A mutant): 1.8 ± 0.8
effect of compound alone on currents of human TRPV1 receptor ([1]; 100 μM alone, holding potential −80 mV): had no effect
percent inhibition of capsaicin-induced inward current ([1]; 100 μM gomisin A coapplied with 1 μM capsaicin, −80 mV): 46.5 ± 4.5%
inhibition of capsaicin-induced current ([1]; at +80 mV): 42.6 ± 11.2%
inhibition of capsaicin-induced current ([1]; at −100 mV): 71.1 ± 16.2%
Vmax ([1]; […], inhibition of capsaicin-induced current, holding potential −80 mV): 72.9 ± 1.0
manner of attenuation of capsaicin-elicited inward peak currents ([1]; cotreatment with capsaicin): reversible, voltage insensitive, concentration dependent, and noncompetitive
percent inhibition of capsaicin-induced inward current ([1]; preapplication of gomisin A, 1 μM capsaicin): 48.2 ± 7.2%
inward current in control oocytes on coapplication (control oocytes; 10 μM gomisin A coapplied with 1 μM capsaicin, H2O-injected oocytes): did not result in an inward current
inward peak current in control oocytes (control oocytes; 10 μM): did not result in any inward peak current
